Legend:
[1] = test system: chronic leg ulcers in patients with sickle cell anaemia; conditions: concomitant use in 9 of 18 trial patients; p=0.96
[2] = trial patients; after ingestion of hydroxycarbamide vs after sodium nitrite application
Procedure: Plasma and whole blood nitrite and nitrate concentrations were collected at the following time points: pre-dose; immediately after application; 5, 10, 15, 20, 30, 45, 60, and 90 min post-dose; 2, 3, 6, 8, 12, 24, and 48 h post-dose; then weekly and at the end of the study. All processing was done at the bedside. Plasma and whole blood nitrite and nitrate were measured with a gas-phase chemiluminescence nitric oxide analyzer, as previously reported (Gladwin et al., Proc Natl Acad Sci USA.; 97: 11482-11487, 2000).
Therefore, we did a subsequent pharmacokinetic analysis was carried out with respect to the time and dose of hydroxycarbamide intake instead of nitrite cream administration, using a population approach. A two-compartment model was fitted with first-order absorption and elimination to whole blood nitrite concentrations using first-order conditional estimation method by Phoenix NLME 1.2 (Certara USA Inc., St Louis, Mo., USA), and an exponential model was used to describe the inter-individual variability and a mixed-ratio model to describe the intra-individual variability (FIG. 7C).

[3] = test system: sickle cell disease leg ulcers; conditions: published randomised trials; RGD peptide topical, arginine butyrate intravenous; cited from earlier work

| Whole blood nitrite concentrations [2] | Molecule | Association with ulcer healing [1] | Wound closure [3] |
| --- | --- | --- | --- |
| increased | NC(=O)NO [hydroxycarbamide] | not associated with ulcer healing |  |
|  | Arg-Gly-Asp (RGD) peptide |  | statistically significant increases in wound closure |
|  | arginine butyrate |  | statistically significant increases in wound closure |
